Data from patent US8349837B2, “Pharmaceutical composition comprising racemic aminopterin” (Aminopterin, LLC, priority 2009, dated 2013).

Assay: Pharmacokinetics and oral absorption in Beagle dogs
Conditions: for Mean Plasma D-isomer: Beagle dogs N=10, oral capsule by gastric placement, 1 mg D-isomer
Experimental: Ten (N=10) Beagle dogs were enrolled in a pharmacokinetic study to examine the oral absorption of 1 tablet of the pure L-isomer tablet formulation (batch 116I0604), 1 mg of the D-isomer admixed with 99 mg microcrystalline cellulose, and 4 tablets of the racemic tablet formulation (batch 157I0907). Each formulation was encapsulated in a hard gelatin capsule and administered by direct gastric placement. Dosing of each formulation was separated by a 7 day washout period. The mean body weight of the ten dogs was 11.3±1.7 (SD) kilograms.
For pharmacokinetic analysis, venous blood samples with EDTA as anticoagulant were taken before each dosing and at 0.5, 1, 1.5, 2, 3, 6, 9 and 12 hours after each dosing. Samples were centrifuged, and the plasma collected and frozen for analysis. There was no urine sampling in this study. Aminopterin in plasma samples was quantitated by an achiral LC/MS assay (Advion Biosciences, Ithaca, N.Y.). The lower limit of quantitation (LLOQ) of the assay was 0.5 ng/ml or 1.2 nM. The amount of L-isomer and D-isomer in plasma samples from animals dosed with the racemate was determined using a chiral LC/MS assay.

[1] = Beagle dogs, oral, isomers given separately

| SMILES | Mean Plasma D-isomer (collection time 0.0 hr (before dosing)) | Mean Plasma D-isomer (collection time 0.5 hr) | Mean Plasma D-isomer (collection time 1.0 hr) | Mean Plasma D-isomer (collection time 1.5 hr) | Mean Plasma D-isomer (collection time 2.0 hr) | Mean Plasma D-isomer (collection time 3.0 hr) | Mean Plasma D-isomer (collection time 6.0 hr) | Mean Plasma D-isomer (collection time 9.0 hr) | Mean Plasma D-isomer (collection time 12.0 hr) | oral absorption when given separately [1] | systemic exposure relative to that of the L-isomer (AUC ratio) [1] |
| --- | --- | --- | --- | --- | --- | --- | --- | --- | --- | --- | --- |
| Nc1nc(N)c2nc(CNc3ccc(C(=O)N[C@H](CCC(=O)O)C(=O)O)cc3)cnc2n1 (single isomer, unassigned) [D-isomer] | 0.0000 µM | 0.0050 µM | 0.0117 µM | 0.0150 µM | 0.0152 µM | 0.0106 µM | 0.0034 µM | 0.0023 µM | 0.0026 µM | efficiently absorbed | approximately 30% |
| Nc1nc(N)c2nc(CNc3ccc(C(=O)N[C@@H](CCC(=O)O)C(=O)O)cc3)cnc2n1 [L-isomer] |  |  |  |  |  |  |  |  |  | efficiently absorbed |  |
